Assays:
[1] = parameters: species or system mice; conditions: mouse, in vivo, ip
[2] = tested on: DSS model of inflammatory bowel disease; experiment: DSS model: colon length and colon weight to length ratio; type: in vivo, C57BL/6 mice; conditions: DSS treated mice
Procedure: Eight-week old C57BL/6 mice were housed 5 animals were cage and given food and water ad libitum for 7 days. Following the 7-day acclimation period, treatments were initiated concurrently with addition of 2.5% DSS to the drinking water. […] The mice were treated with 2.5% dextran sodium sulfate (DSS) in their drinking water for 6 days. Treatments were continued with SG-14 or […]-GLP2 twice a day (b.i.d.) in the morning and evening (every 8 and 16 hr) with i.p. injections at 50 nmoles/kg. Fresh 2.5% DSS drinking water was prepared every 2 days. Colon length was measured in mice included in the DSS model described in Example 7. […] The graphs in FIG. 10 and FIG. 11 represent data pooled from the single experiment (n=10).

[3] = tested on: HCT8 enterocyte and HT29-MTX goblet cell lines; experiment: Oris Cell Migration assay (epithelial cell wound healing); type: cell-based, human; conditions: 48 hours; SG-14 1 μg/ml, EGF 30 ng/ml, staurosporine 100 nM; FIG. 5
Description: The 96 well Oris Cell Migration assay containing plugs preventing cell attachment in the center of each well was used according to the manufacturer's instructions (Platypus Technologies, Madison, WI). The migration assay plates were warmed to room temperature prior to use and plugs were removed from 100% confluence wells prior to cell addition. The HCT8 enterocyte and HT29-MTX goblet cell lines were used at a 9:1 ratio with a total of 5×10^4 total cells added per well (4.5×10^4 HCT8 cells and 0.5×10^4 HT29-MTX cells). Cells were incubated at 37° C.+5% CO2 for 24 hours. Plugs were then removed from all control and sample wells. Control wells included cells treated with the diluent vehicle as the blank, 30 ng/ml epidermal growth factor (EGF) as the positive control, and 100 nM staurosporine as the negative control, all diluted in cRPMI. Sample wells contained SG-14 protein at a concentration of 1 μg/ml diluted in cRPMI. 100% and 0% wells were cultured in cRPMI. […] The green fluorescent viability dye […] was added to all wells at a concentration of […] in PBS containing 0.9 mM CaCl2) and 0.5 mM MgCl2, incubated for 30 min at 37° C.+5% CO2, the dye was removed and cells were washed in PBS containing 0.9 mM CaCl2) and 0.5 mM MgCl2 and fluorescence was measured. […] Samples were normalized between 100% and 0% samples and values expressed as a percent growth.

[4] = tested on: HCT8 enterocytes and HT29-MTX goblet cells (epithelial monolayer) co-cultured with U937 monocytes; experiment: Co-culture trans-epithelial electrical resistance (TEER) assay, barrier disruption by heat killed E. coli; type: cell-based, human; conditions: staurosporine 100 nM, negative control
Procedure: Assays were performed as described below in trans-well plates where co-cultures of multiple cell types were performed utilizing a permeable membrane to separate cells. In the apical (top) chamber, human colonic epithelial cells, consisting of a mixture of enterocytes and goblet cells, were cultured until cells obtained tight junction formation and barrier function capacity as assessed by measurement of trans-epithelial electrical resistance (TEER). In the basolateral chamber, monocytes were cultured separately. Epithelial cells were primed with inflammatory cytokines.
Cell culture. The HCT8 human enterocyte cell line (ATCC Cat. No. CCL-244) was maintained in RPMI-1640 medium supplemented with 10% fetal bovine serum, 100 IU/ml penicillin, 100 µg/ml streptomycin, 10 µg/ml gentamicin and 0.25 µg/ml amphotericin (cRPMI). HT29-MTX human goblet cells (Sigma-Aldrich (St. Louis, MO; Cat. No. 12040401) were maintained in DMEM medium with 10% fetal bovine serum, 100 IU/ml penicillin, 100 µg/ml streptomycin, 10 µg/ml gentamicin and 0.25 µg/ml amphotericin (cDMEM). Epithelial cells were passaged by trypsinization and were used between 5 and 15 passages following thawing from liquid nitrogen stocks. U937 monocytes (ATCC Cat. No. 700928) were maintained in cRPMI medium as a suspension culture, and split by dilution as needed to maintain cells between 5×10^5 and 2×10^6 cells/ml. U937 cells were used up to passage 18 following thawing from liquid nitrogen stocks.
Epithelial cell culture. A mixture of HCT8 enterocytes and HT29-MTX goblet cells were plated at a 9:1 ratio, respectively, in the apical chamber of the transwell plate as described previously (Berget et al., 2017, Int J Mol Sci, 18:1573; Beduneau et al., 2014, Eur J Pharm Biopharm, 87:290-298). […] Epithelial cells were trypsinized from culture flasks and viable cells determined by trypan blue counting. […]
Co-culture assay. […] Trans-epithelial electrical resistance (TEER) readings were measured after the IFN-γ treatment and were used as the pre-treatment TEER values. […]

Which “Time at which protein reached the colon after i.p. delivery” value [1] does the source give for “fluorescently labeled bovine serum albumin: fluorescently labeled bovine serum albumin used for tracking after i.p. injection” here?
Its value is 6 h.

With “Gly2-GLP2: a stable analog of glucagon-like peptide 2 (GLP2); positive control in DSS model (HGDGSFSDEMNTILDNLAARDFINWLIQTKITD; Glucagon-like peptide 2; UniProt P01275 146-178, looked up, variant A2G) [reference compound]” as the compound, how does the Colon length ([2]; FIG. 10) read?
The Colon length was “significant improvement in colon length”.

And the “Ratio between colon weight and length” value ([2]; FIG. 11)?
Its value is “significant reduction”.

With `CN[C@@H]1C[C@H]2O[C@@](C)([C@@H]1OC)n1c3ccccc3c3c4c(c5c6ccccc6n2c5c31)C(=O)NC4` [staurosporine, reference compound] as the compound, how does the “Wound healing (percent growth)” value [3] read?
The value was “suppressing cell proliferation”.

What about the “Effect on TEER (control compound)” value [4] of the same compound?
Its value is “drastic decrease in TEER”.

Which “Wound healing (percent growth)” value [3] does the source give for “EGF: epidermal growth factor, positive control in wound healing assay” here?
The value was “increasing proliferation”.

Source: patent US12371456B2, “Proteins for the treatment of epithelial barrier function disorders” (Genevive, Inc., priority 2017, dated 2025)
